From patent publication US5631279A, “Perhydroisoindole derivatives, preparation thereof and pharmaceutical compositions containing same” (Rhone-Poulenc Rorer, S.A., priority 1993, dated 1997)

System: rabbit pulmonary artery
Experiment: Antagonism of rabbit pulmonary artery contractions induced by [Lys5 MeLeu9 Nle10]NKA(4-10)
Set-up: species or system rabbit (male, New Zealand albino)
Conditions: product incubated for 2 hours; [Lys5 MeLeu9 Nle10]NKA(4-10) as agonist; Krebs solution 37° C.
Procedure: The in vitro antagonistic activity of the products is determined with respect to rabbit pulmonary artery contractions induced by [Lys^5 MeLeu^9 Nle^10 ]NKA(4-10) according to the technique described by D. Regoli et al., Trends Pharmacol. Sci, 2, 290-295 (1988) and P. D'Orleans-Juste et al., Eur. J. Pharmacol., 125, 37-44 (1985). The pulmonary artery of the rabbit (male, New Zealand albino) is withdrawn; the endothelium is destroyed by introduction into the arterial lumen of a glass rod coated with filter paper, and the artery is then cut into rings and incubated in an isolated-organ tank containing an oxygenated Krebs solution (95% O2; 5% CO2) at 37° C. at a tension of 1 g. After determining the agonistic activity of [Lys^5 MeLeu9Nle^10 ]NKA(4-10) (contractile effect), the product to be studied is incubated for 2 hours in the isolated-organ tank before a further addition of [Lys^5 MeLeu^9 Nle^10 ]NKA(4-10). The percentage inhibition obtained is calculated. The antagonistic activity of a product is expressed in terms of IC^50.
In the above technique, the products studied display an antagonism to rabbit pulmonary artery contractions at the following concentration: […]

- IC50: 215 nM
SMILES: COc1ccccc1[C@@]1(O)[C@H](O)CC(c2ccccc2)(c2ccccc2)[C@@H]2CN(C(=O)Cc3c[nH]c4ccccc34)C[C@@H]21 [Example 1]
